Measured values from patent publication US12071453B2, “Neuroactive steroids, compositions, and uses thereof” (Sage Therapeutics, Inc., priority 2013, dated 2024).

Key:
[1] = molecular target: T1, GABAA receptors composed of the α1β2γ2 subunits (GABRA1/GABRB2/GABRG2) (Homo sapiens, UniProt P14867+P47870); assay: Two Electrode Voltage Clamp (TEVC), GABA receptor potentiation in Xenopus laevis oocytes, α1β2γ2; type: cell-based; conditions: 10 μM compound, 10 μM GABA, read-out: GABA (α1β2γ2) % efficacy at 10 μM
T1 construct: expressed in transfected cells; host or cells: Xenopus laevis oocytes, injected (ratio 1:1:1)
Experimental: The Two Electrode Voltage Clamp (TEVC) technique was used to investigate the effects of compounds at a concentration of 10 μM on GABAA receptors composed of the α1β2γ2 or α4β3δ subunits expressed in oocytes from the Xenopus laevis. GABA-evoked currents were recorded from oocytes that expressed the GABA receptors and the modulatory effects of the test items on these currents were investigated.
Ovaries were harvested from Xenopus laevis females that had been deeply anesthetized by cooling at 4° C. and immersion in Tricaine methanesulfonate (MS-222 at a concentration of 150 mg/L) in sodium bicarbonate (300 mg/L). Once anesthetized the animal was decapitated and pithed following the rules of animal rights from the Geneva canton. A small piece of ovary was isolated for immediate preparation while the remaining part was placed at 4° C. in a sterile Barth solution containing in mM NaCl 88, KCl 1, NaHCO3 2.4, HEPES 10, MgSO4·7H2O 0.82, Ca(NO3)2·4H2O 0.33, CaCl2·6H2O 0.41, at pH 7.4, and supplemented with 20 μg/ml of kanamycin, 100 unit/ml penicillin and 100 μg/ml streptomycin. All recordings were performed at 18° C. and cells were super-fused with medium containing in mM: NaCl 82.5, KCl 2.5, HEPES 5, CaCl2·2H2O, ·6H2O 1, pH 7.4.
Plasmids containing the RNAs of the human GABRA1/GABRB2/GABRG2 and GABRA4/GABRB3/GABRD genes were injected into oocytes using a proprietary automated injection device (Hogg el al., J. Neurosci. Methods, (2008) 169: 65-75). These genes encode for the α1β2γ2 and α4β3δ GABAA subunits respectively. Receptor expression was assessed using electrophysiology at least two days later. The ratio of RNA injection for α1β2γ2 was 1:1:1 and for α4β3δ was 5:1:5. Electrophysiological recordings were made using an automated process equipped with standard TEVC and data were captured and analyzed using a proprietary data acquisition and analysis software running under Matlab (Mathworks Inc.). The membrane potential of the oocytes was maintained at −80 mV throughout the experiments. To explore the effects of proprietary compounds, currents were evoked by applying 10 μM (α1β2γ2) or 3 μM (α4β3δ) GABA for 30 s. These concentrations approximated the EC50 concentration of GABA at each receptor subtype. Oocytes were then re-exposed to GABA again for 30 s. 15 s after beginning the GABA application, test article was co-applied at a concentration of 10 μM for 15 s. Potentiation of the peak current was assessed. Data was filtered at 10 Hz, captured at 100 Hz and analyzed using proprietary data acquisition and analysis software running under Matlab (Mathworks Inc.). For statistical analysis values were computed either with Excel (Microsoft) or Matlab (mathworks Inc.). To obtain mean measurements with standard deviations, all experiments were carried out using at least three cells.

[2] = molecular target: [35S]-TBPS binding in rat brain cortical membranes; assay: Steroid inhibition of [35S]-TBPS binding, rat brain cortical membranes; conditions: 3 nM [35S]-TBPS, in the presence of 5 μM GABA, read-out: 35S-TBPS Radioligand Displacement (IC50)
Experimental: TBPS binding assays using rat brain cortical membranes in the presence of 5 μM GABA has been described (Gee et al, J. Pharmacol. Exp. Ther. 1987, 241, 346-353; Hawkinson et al, Mol. Pharmacol. 1994, 46, 977-985; Lewin, A. H et al., Mol. Pharmacol. 1989, 35, 189-194).
Briefly, cortices are rapidly removed following decapitation of carbon dioxide-anesthetized Sprague-Dawley rats (200-250 g). The cortices are homogenized in 10 volumes of ice-cold 0.32 M sucrose using a glass/teflon homogenizer and centrifuged at 1500×g for 10 min at 4° C. The resultant supernatants are centrifuged at 10,000×g for 20 min at 4° C. to obtain the P2 pellets. The P2 pellets are resuspended in 200 mM NaCl/50 mM Na—K phosphate pH 7.4 buffer and centrifuged at 10,000×g for 10 min at 4° C. This washing procedure is repeated twice and the pellets are resuspended in 10 volumes of buffer. Aliquots (100 μL) of the membrane suspensions are incubated with 3 nM [^35S]-TBPS and 5 μL aliquots of test drug dissolved in dimethyl sulfoxide (DMSO) (final 0.5%) in the presence of 5 μM GABA. The incubation is brought to a final volume of 1.0 mL with buffer. Nonspecific binding is determined in the presence of 2 μM unlabeled TBPS and ranged from 15 to 25%. Following a 90 min incubation at room temp, the assays are terminated by filtration through glass fiber filters (Schleicher and Schuell No. 32) using a cell harvester (Brandel) and rinsed three times with ice-cold buffer. Filter bound radioactivity is measured by liquid scintillation spectrometry. Non-linear curve fitting of the overall data for each drug averaged for each concentration is done using Prism (GraphPad). […] The concentration of test compound producing 50% inhibition (IC50) of specific binding and the maximal extent of inhibition (Imax) are determined for the individual experiments with the same model used for the overall data and then the mean±SEM.s of the individual experiments are calculated.
Various compounds are or can be screened to determine their potential as modulators of [^35S]-TBPS binding in vitro. These assays are or can be performed in accordance with the above discussed procedures.

T1 sequence (P14867 28-456): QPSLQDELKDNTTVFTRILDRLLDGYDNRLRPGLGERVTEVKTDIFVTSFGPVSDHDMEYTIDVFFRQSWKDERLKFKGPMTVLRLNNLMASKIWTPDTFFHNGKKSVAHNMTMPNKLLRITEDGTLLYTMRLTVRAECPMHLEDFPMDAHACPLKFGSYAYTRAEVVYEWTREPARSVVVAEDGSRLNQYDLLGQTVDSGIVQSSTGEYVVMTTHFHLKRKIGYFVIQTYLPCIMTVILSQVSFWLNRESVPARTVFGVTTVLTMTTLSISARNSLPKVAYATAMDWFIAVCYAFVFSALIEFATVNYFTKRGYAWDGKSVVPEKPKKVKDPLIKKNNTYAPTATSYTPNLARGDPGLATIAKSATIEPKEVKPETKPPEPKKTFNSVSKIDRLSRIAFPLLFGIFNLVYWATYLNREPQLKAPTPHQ
T1 sequence (P47870 26-512): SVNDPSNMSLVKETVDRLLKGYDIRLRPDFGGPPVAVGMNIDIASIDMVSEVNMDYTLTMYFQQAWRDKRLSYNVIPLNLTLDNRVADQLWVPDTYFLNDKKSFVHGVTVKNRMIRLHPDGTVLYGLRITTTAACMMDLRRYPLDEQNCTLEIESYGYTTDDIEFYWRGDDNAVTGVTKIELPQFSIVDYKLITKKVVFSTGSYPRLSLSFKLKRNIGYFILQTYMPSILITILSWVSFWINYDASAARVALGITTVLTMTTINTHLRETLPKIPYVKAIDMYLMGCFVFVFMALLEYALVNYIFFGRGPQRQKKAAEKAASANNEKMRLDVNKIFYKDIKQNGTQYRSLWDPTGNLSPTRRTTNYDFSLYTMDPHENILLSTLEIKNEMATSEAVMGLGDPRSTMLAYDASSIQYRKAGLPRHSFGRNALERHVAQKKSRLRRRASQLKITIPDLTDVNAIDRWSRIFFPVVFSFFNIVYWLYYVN
T1 sequence (P18507 40-475 partner): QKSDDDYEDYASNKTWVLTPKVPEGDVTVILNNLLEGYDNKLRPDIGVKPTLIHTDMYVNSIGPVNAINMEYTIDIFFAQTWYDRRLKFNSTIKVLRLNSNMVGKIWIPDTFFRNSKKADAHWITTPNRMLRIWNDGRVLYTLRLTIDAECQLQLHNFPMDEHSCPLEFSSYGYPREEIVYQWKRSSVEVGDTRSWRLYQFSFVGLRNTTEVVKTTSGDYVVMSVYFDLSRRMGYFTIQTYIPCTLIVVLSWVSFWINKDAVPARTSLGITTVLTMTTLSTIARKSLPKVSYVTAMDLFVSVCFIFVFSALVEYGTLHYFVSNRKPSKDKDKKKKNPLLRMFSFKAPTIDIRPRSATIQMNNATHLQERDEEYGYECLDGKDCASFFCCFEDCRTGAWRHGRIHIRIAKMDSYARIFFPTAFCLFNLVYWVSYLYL

COC[C@]12CC[C@@](C)(O)C[C@H]1CC[C@H]1[C@@H]3CC[C@H](C(=O)Cn4cnc5ccccc54)[C@@]3(C)CC[C@@H]12 [Compound 80]
Emax at 10 µM [1]: 500 to 1000%
IC50 [2]: 10 to 50 nM

COC[C@]12CC[C@@](C)(O)C[C@@H]1CC[C@H]1[C@@H]3CC[C@H](C(=O)Cn4nnc5ccc(F)cc54)[C@@]3(C)CC[C@@H]12 [Compound 41]
Emax at 10 µM [1]: 1000 to 1500%
IC50 [2]: 10 to 50 nM

COC[C@]12CC[C@@](C)(O)C[C@@H]1CC[C@H]1[C@@H]3CC[C@H](C(=O)Cn4nnc5c(Cl)cccc54)[C@@]3(C)CC[C@@H]12 [Compound 60]
Emax at 10 µM [1]: 50 to 500%
IC50 [2]: 10 to 50 nM

COC[C@]12CC[C@@](C)(O)C[C@@H]1CC[C@H]1[C@@H]3CC[C@H](C(=O)Cn4nnc5cc(Cl)cnc54)[C@@]3(C)CC[C@@H]12 [Compound 100]
Emax at 10 µM [1]: 500 to 1000%
IC50 [2]: 100 to 500 nM

COC[C@]12CC[C@@](C)(O)C[C@H]1CC[C@H]1[C@@H]3CC[C@H](C(=O)Cn4nc5cccc(F)c5n4)[C@@]3(C)CC[C@@H]12 [Compound 83]
Emax at 10 µM [1]: 1000 to 1500%
IC50 [2]: < 10 nM

COC[C@]12CC[C@@](C)(O)C[C@@H]1CC[C@H]1[C@@H]3CC[C@H](C(=O)Cn4nc5ccc(OC)cc5n4)[C@@]3(C)CC[C@@H]12 [Compound 50]
Emax at 10 µM [1]: 500 to 1000%
IC50 [2]: 10 to 50 nM

COC[C@]12CC[C@@](C)(O)C[C@H]1CC[C@H]1[C@@H]3CC[C@H](C(=O)Cn4nccn4)[C@@]3(C)CC[C@@H]12 [Compound 31]
Emax at 10 µM [1]: 500 to 1000%
IC50 [2]: 10 to 50 nM

COC[C@]12CC[C@@](C)(O)C[C@@H]1CC[C@H]1[C@@H]3CC[C@H](C(=O)Cn4nnc5c(F)c(F)ccc54)[C@@]3(C)CC[C@@H]12 [Compound 53]
Emax at 10 µM [1]: 50 to 500%
IC50 [2]: 50 to 100 nM

COC[C@]12CC[C@@](C)(O)C[C@@H]1CC[C@H]1[C@@H]3CC[C@H](C(=O)Cn4cc5ccc(F)cc5n4)[C@@]3(C)CC[C@@H]12 [Compound 111]
Emax at 10 µM [1]: 500 to 1000%
IC50 [2]: 50 to 100 nM

COC[C@]12CC[C@@](C)(O)C[C@@H]1CC[C@H]1[C@@H]3CC[C@H](C(=O)Cn4ncc5cc(F)ccc54)[C@@]3(C)CC[C@@H]12 [Compound 107]
Emax at 10 µM [1]: 500 to 1000%
IC50 [2]: > 500 nM

COC[C@]12CC[C@@](C)(O)C[C@@H]1CC[C@H]1[C@@H]3CC[C@H](C(=O)Cn4nc5cccc(F)c5n4)[C@@]3(C)CC[C@@H]12 [Compound 49]
Emax at 10 µM [1]: 500 to 1000%
IC50 [2]: 10 to 50 nM

COC[C@]12CC[C@@](C)(O)C[C@@H]1CC[C@H]1[C@@H]3CC[C@H](C(=O)Cn4ncc5ccc(Cl)cc54)[C@@]3(C)CC[C@@H]12 [Compound 112]
Emax at 10 µM [1]: 50 to 500%
IC50 [2]: 50 to 100 nM

COC[C@]12CC[C@@](C)(O)C[C@@H]1CC[C@H]1[C@@H]3CC[C@H](C(=O)Cn4nc5cccc(Cl)c5n4)[C@@]3(C)CC[C@@H]12 [Compound 61]
Emax at 10 µM [1]: 500 to 1000%
IC50 [2]: < 10 nM

COC[C@]12CC[C@@](C)(O)C[C@@H]1CC[C@H]1[C@@H]3CC[C@H](C(=O)Cn4cnc5ccccc54)[C@@]3(C)CC[C@@H]12 [Compound 46]
Emax at 10 µM [1]: 1000 to 1500%
IC50 [2]: 50 to 100 nM

COC[C@]12CC[C@@](C)(O)C[C@@H]1CC[C@H]1[C@@H]3CC[C@H](C(=O)Cn4nc5cc(F)c(F)cc5n4)[C@@]3(C)CC[C@@H]12 [Compound 97]
Emax at 10 µM [1]: 500 to 1000%
IC50 [2]: 10 to 50 nM

COC[C@]12CC[C@@](C)(O)C[C@H]1CC[C@H]1[C@@H]3CC[C@H](C(=O)Cn4nc5ccc(F)cc5n4)[C@@]3(C)CC[C@@H]12 [Compound 73]
Emax at 10 µM [1]: 500 to 1000%
IC50 [2]: < 10 nM

COC[C@]12CC[C@@](C)(O)C[C@H]1CC[C@H]1[C@@H]3CC[C@H](C(=O)Cn4nnc5ccc(F)cc54)[C@@]3(C)CC[C@@H]12 [Compound 74]
Emax at 10 µM [1]: 500 to 1000%
IC50 [2]: < 10 nM

COC[C@]12CC[C@@](C)(O)C[C@H]1CC[C@H]1[C@@H]3CC[C@H](C(=O)Cn4nnc5cc(F)ccc54)[C@@]3(C)CC[C@@H]12 [Compound 75]
Emax at 10 µM [1]: 500 to 1000%
IC50 [2]: 10 to 50 nM

COC[C@]12CC[C@@](C)(O)C[C@@H]1CC[C@H]1[C@@H]3CC[C@H](C(=O)Cn4nnc5ccccc54)[C@@]3(C)CC[C@@H]12 [Compound 39]
Emax at 10 µM [1]: 500 to 1000%
IC50 [2]: 10 to 50 nM

COC[C@]12CC[C@@](C)(O)C[C@@H]1CC[C@H]1[C@@H]3CC[C@H](C(=O)Cn4nnc(C)n4)[C@@]3(C)CC[C@@H]12 [Compound 17]
Emax at 10 µM [1]: 1000 to 1500%
IC50 [2]: > 500 nM

COC[C@]12CC[C@@](C)(O)C[C@@H]1CC[C@H]1[C@@H]3CC[C@H](C(=O)Cn4nnc5cc(F)ccc54)[C@@]3(C)CC[C@@H]12 [Compound 42]
Emax at 10 µM [1]: 500 to 1000%
IC50 [2]: 10 to 50 nM

COC[C@]12CC[C@@](C)(O)C[C@@H]1CC[C@H]1[C@@H]3CC[C@H](C(=O)Cn4nnc5c(OC)c(OC)ccc54)[C@@]3(C)CC[C@@H]12 [Compound 63]
Emax at 10 µM [1]: 500 to 1000%
IC50 [2]: 10 to 50 nM

COC[C@]12CC[C@@](C)(O)C[C@H]1CC[C@H]1[C@@H]3CC[C@H](C(=O)Cn4nnc5ccc(F)c(F)c54)[C@@]3(C)CC[C@@H]12 [Compound 77]
Emax at 10 µM [1]: 1000 to 1500%
IC50 [2]: < 10 nM

COC[C@]12CC[C@@](C)(O)C[C@@H]1CC[C@H]1[C@@H]3CC[C@H](C(=O)Cn4cc5ccncc5n4)[C@@]3(C)CC[C@@H]12 [Compound 44]
Emax at 10 µM [1]: 1000 to 1500%
IC50 [2]: 10 to 50 nM

COC[C@]12CC[C@@](C)(O)C[C@@H]1CC[C@H]1[C@@H]3CC[C@H](C(=O)Cn4cnc(C)c4)[C@@]3(C)CC[C@@H]12 [Compound 23]
Emax at 10 µM [1]: 500 to 1000%
IC50 [2]: 100 to 500 nM

COC[C@]12CC[C@@](C)(O)C[C@@H]1CC[C@H]1[C@@H]3CC[C@H](C(=O)Cn4cc(S(C)(=O)=O)cn4)[C@@]3(C)CC[C@@H]12 [Compound 24]
Emax at 10 µM [1]: 500 to 1000%
IC50 [2]: 100 to 500 nM
